From ChEMBL document CHEMBL1201862, “PubChem BioAssay data set” (2004)
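Where inhibition never reached the appropriate level, the endpoint shown equals the highest concentration tested. Otherwise, values were interpolated linearly from a five-concentration, 48-hour dose response in 96-well plates. At the GI50, growth is halved.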 The source made the active and inactive calls. No stated cut-off is given here; in the data, active = GI50 up to about 1.1 µM and inactive = higher.

Columns and labels:
Assay in all cases: NCI-60 cell line screen, 48 h
[1] = tested on: OVCAR-3
[2] = tested on: SK-OV-3
[3] = tested on: HOP-92
[4] = tested on: EKVX
[5] = tested on: LOX IMVI
[6] = tested on: CCRF-CEM
[7] = tested on: HOP-62
[8] = tested on: U-251
[9] = tested on: BT-549
[10] = tested on: SR
[11] = tested on: UACC-257
[12] = tested on: NCI-H522
[13] = tested on: OVCAR-5
[14] = tested on: SF-268
[15] = tested on: SN12C
[16] = tested on: NCI-H226
[17] = tested on: Hs-578T
[18] = tested on: HT-29
[19] = tested on: M14
[20] = tested on: RPMI-8226

Measured: GI50

CC(N)(CC(O)(C(F)(F)Cl)C(F)(F)Cl)C(=O)O (centres undefined)
inactive: [1] > 10 µM | [2] > 10 µM | [3] > 10 µM | [4] > 10 µM | [5] > 10 µM | [6] > 10 µM | [7] > 10 µM | [8] > 10 µM | [9] > 10 µM | [10] > 10 µM | [11] > 10 µM | [12] > 10 µM | [13] > 10 µM | [14] > 10 µM | [15] > 10 µM | [16] > 10 µM | [17] > 10 µM | [18] > 10 µM | [19] > 10 µM

CCOC(=O)CCC(NC(=O)Cc1ccc(Nc2nc3ccccc3nc2-c2ccccc2)cc1)C(=O)OCC (centres undefined)
inactive: [2] 22.4 µM | [3] 18.8 µM | [4] 63 µM | [5] > 100 µM | [6] > 100 µM | [7] 6.46 µM | [8] 15.1 µM | [9] 46.8 µM | [10] > 100 µM | [11] > 100 µM | [12] 20.7 µM | [13] 93.8 µM | [14] 5.26 µM | [15] > 100 µM | [16] 72.1 µM | [17] 10.2 µM | [18] > 100 µM | [19] 65.6 µM

N#Cc1c(-c2ccc(Cl)cc2)c2c([nH]c1=O)-c1ccccc1SC2
inactive: [1] 26.2 µM | [2] 32.7 µM | [3] 17.7 µM | [4] 21.1 µM | [5] 22 µM | [6] 26.3 µM | [7] 32.1 µM | [8] 25.6 µM | [9] > 100 µM | [10] 29.2 µM | [11] > 100 µM | [20] 16.7 µM | [13] > 100 µM | [14] 41.9 µM | [15] 54.3 µM | [16] 38.6 µM | [17] 67.9 µM | [18] 59.7 µM | [19] > 100 µM

Cc1cn2c(/C=C3/C(=O)Nc4cccc(Cl)c43)c(Cl)nc2s1
inactive: [1] 61.9 µM | [2] 27.7 µM | [3] 34.3 µM | [4] 55.8 µM | [5] > 100 µM | [6] 13.5 µM | [7] 13.6 µM | [8] 5.26 µM | [9] 22.3 µM | [10] > 100 µM | [11] > 100 µM | [20] > 100 µM | [12] > 100 µM | [13] > 100 µM | [14] 11.3 µM | [15] > 100 µM | [17] 4.13 µM | [18] > 100 µM | [19] 34.7 µM

CCOC(=O)c1cc2c3c(cc(OC)c2[nH]1)N(C(=O)OCC)CC3
inactive: [1] > 100 µM | [2] > 100 µM | [3] > 100 µM | [4] 42.5 µM | [5] > 100 µM | [6] > 100 µM | [7] > 100 µM | [8] > 100 µM | [9] > 100 µM | [10] 86.1 µM | [11] > 100 µM | [20] > 100 µM | [13] > 100 µM | [14] > 100 µM | [15] > 100 µM | [16] > 100 µM | [17] > 100 µM | [18] > 100 µM | [19] > 100 µM

O=c1c2c(nc3[nH]ccn13)CCC2
inactive: [1] > 10 µM | [2] > 10 µM | [3] > 10 µM | [4] > 10 µM | [5] > 10 µM | [6] > 10 µM | [7] > 10 µM | [8] > 10 µM | [9] > 10 µM | [10] > 10 µM | [11] > 10 µM | [20] > 10 µM | [13] > 10 µM | [14] > 10 µM | [15] > 10 µM | [16] > 10 µM | [17] > 10 µM | [18] > 10 µM | [19] > 10 µM

Cc1ccc(SC(=O)N2C(=S)N=C(NC3CCCCC3)C23CCCCC3)cc1
inactive: [1] 50.6 µM | [2] > 100 µM | [3] > 100 µM | [4] > 100 µM | [5] 95.5 µM | [6] 29 µM | [7] > 100 µM | [8] 95.3 µM | [9] 57.5 µM | [10] 57.7 µM | [11] 82.8 µM | [20] > 100 µM | [12] 65.8 µM | [13] > 100 µM | [14] > 100 µM | [15] > 100 µM | [17] 62.2 µM | [18] 57.9 µM | [19] > 100 µM

COC(=O)C(Cc1c[nH]c2ccccc12)NP(=O)(O)OCC1OC(n2cc(Br)c(=O)[nH]c2=O)CC1O (centres undefined)
inactive: [1] > 100 µM | [2] > 100 µM | [3] > 100 µM | [4] > 100 µM | [5] > 100 µM | [6] > 100 µM | [7] > 100 µM | [8] > 100 µM | [9] > 100 µM | [10] > 100 µM | [11] > 100 µM | [12] > 100 µM | [13] > 100 µM | [14] > 100 µM | [15] > 100 µM | [16] > 100 µM | [17] > 100 µM | [18] > 100 µM | [19] > 100 µM

CC(=O)OCC1OC(n2c(C#N)cc(=O)[nH]c2=O)CC1OC(C)=O (centres undefined)
inactive: [1] > 100 µM | [2] > 100 µM | [3] > 100 µM | [4] > 100 µM | [5] > 100 µM | [6] > 100 µM | [7] > 100 µM | [8] > 100 µM | [9] > 100 µM | [10] > 100 µM | [11] > 100 µM | [12] > 100 µM | [13] > 100 µM | [14] > 100 µM | [15] > 100 µM | [16] > 100 µM | [17] > 100 µM | [18] > 100 µM | [19] > 100 µM

O=C(Nc1nn(C(=O)c2cccnc2)c(=O)s1)c1ccc(Cl)cc1
inactive: [1] 43.1 µM | [2] 56.2 µM | [3] 61.5 µM | [4] 50.6 µM | [5] > 100 µM | [6] 34 µM | [7] > 100 µM | [8] 74 µM | [9] > 100 µM | [10] > 100 µM | [11] > 100 µM | [12] 21.7 µM | [13] > 100 µM | [14] 20.7 µM | [15] > 100 µM | [16] 22.5 µM | [17] 29.2 µM | [18] > 100 µM | [19] > 100 µM
